{"source": "paper PMC3586934", "about": "(Anesthesiology, 2012)", "key": {"CYP3A4": {"system": "CYP3A4", "settings": "cited from earlier work"}, "CYP2B6": {"system": "CYP2B6", "settings": "cited from earlier work"}, "[1]": {"settings": "both, human, in vivo, iv"}, "Intravenous": {"assay": "Intravenous", "settings": "for Cmax / AUC(0-t) / AUC(0-inf): both, human, in vivo; for AUC(0-t): AUC0-96, oral methadone; for AUC(0-inf): AUC0-∞; for AUC(0-inf) / Foral: oral methadone"}, "[2]": {"settings": "cited from earlier work"}, "healthy volunteers": {"system": "healthy volunteers", "settings": "6.0 mg intravenous plus 11.0 mg oral methadone HCl"}, "[3]": {"settings": "cited from earlier work", "remark": "listed apart in the source"}, "CYP3A": {"system": "CYP3A", "settings": "human, in vivo; cited from earlier work"}, "P-gp [4]": {"system": "P-gp", "settings": "cited from earlier work"}, "P-gp [5]": {"system": "P-gp", "settings": "rats; cited from earlier work"}}, "note": "Like-named read-outs stand apart in the source and are kept apart here.", "data": [{"smiles": "CCC(=O)C(C[C@H](C)N(C)C)(c1ccccc1)c1ccccc1", "note": "[S-methadone]", "values": [{"measurement": "Km", "setting": "CYP3A4", "value": 149, "unit": "µM"}, {"measurement": "Km", "setting": "CYP2B6", "value": 16, "unit": "µM"}, {"measurement": "EH", "setting": "[1]", "value": "0.06 ± 0.02"}, {"measurement": "Cmax", "setting": "Intravenous; iv, 6 mg", "value": "83 ± 39", "unit": "ng/mL"}, {"measurement": "Cmax", "setting": "Intravenous; po, 11 mg", "value": "30 ± 10", "unit": "ng/mL"}, {"measurement": "AUC(0-t)", "setting": "Intravenous; po, 11 mg, control", "value": "688 ± 169", "unit": "ng·h/mL"}, {"measurement": "AUC(0-inf)", "setting": "Intravenous; po, 11 mg, control", "value": "780 ± 200", "unit": "ng·h/mL"}, {"measurement": "AUC(0-t)", "setting": "Intravenous; po, after indinavir", "value": "685 ± 131", "unit": "ng·h/mL"}, {"measurement": "AUC(0-inf)", "setting": "Intravenous; po, after indinavir", "value": "805 ± 194", "unit": "ng·h/mL"}, {"measurement": "Foral", "setting": "Intravenous; after indinavir", "value": "0.90 ± 0.11"}, {"measurement": "Foral", "setting": "Intravenous; control", "value": "0.87 ± 0.10"}]}, {"smiles": "O=C1Nc2ccc(Cl)cc2[C@@](C#CC2CC2)(C(F)(F)F)O1", "note": "[efavirenz]", "values": [{"measurement": "methadone clearance, change", "setting": "[2]", "value": "doubled"}]}, {"smiles": "CCC(=O)C(CC(C)N(C)C)(c1ccccc1)c1ccccc1", "note": "(stereo not shown) [methadone]", "values": [{"measurement": "AUEC0-∞", "setting": "healthy volunteers; after indinavir", "value": "96± 56", "unit": "mm•hr"}, {"measurement": "Maximum miosis", "setting": "healthy volunteers; after indinavir", "value": "3.6 ± 1.0", "unit": "mm"}, {"measurement": "AUEC0-∞", "setting": "healthy volunteers; control", "value": "87 ± 66", "unit": "mm•hr"}, {"measurement": "Maximum miosis", "setting": "healthy volunteers; control", "value": "3.6 ± 1.0", "unit": "mm"}, {"measurement": "FG predicted", "setting": "[3]", "value": 0.97}, {"measurement": "FG, average in several investigations", "setting": "[3]", "value": 0.96}, {"measurement": "EH, average", "setting": "[3]; intravenous methadone", "value": 0.09}, {"measurement": "fhep", "setting": "[3]; intravenous methadone", "value": 0.76}]}, {"smiles": "Cc1c(O)cccc1C(=O)N[C@@H](CSc1ccccc1)[C@H](O)CN1C[C@H]2CCCC[C@H]2C[C@H]1C(=O)NC(C)(C)C", "note": "[nelfinavir]", "values": [{"measurement": "inhibition of first-pass CYP3A", "setting": "CYP3A", "value": "> 75", "unit": "%"}, {"measurement": "inhibition of hepatic CYP3A", "setting": "CYP3A", "value": 50, "unit": "%"}, {"measurement": "fexofenadine Cmax, change", "setting": "P-gp [4]", "value": "decreased"}]}, {"smiles": "CO[C@H]1/C=C/O[C@@]2(C)Oc3c(C)c(O)c4c(O)c(c(/C=N/N5CCN(C)CC5)c(O)c4c3C2=O)NC(=O)/C(C)=C\\C=C\\[C@H](C)[C@H](O)[C@@H](C)[C@@H](O)[C@@H](C)[C@H](OC(C)=O)[C@@H]1C", "note": "[rifampin]", "values": [{"measurement": "methadone clearance, change", "setting": "[2]", "value": "doubled"}]}, {"smiles": "CC(C)c1nc(CN(C)C(=O)N[C@H](C(=O)N[C@@H](Cc2ccccc2)C[C@H](O)[C@H](Cc2ccccc2)NC(=O)OCc2cncs2)C(C)C)cs1", "note": "[ritonavir]", "values": [{"measurement": "methadone clearance, change", "setting": "[2]", "value": "doubled"}]}, {"smiles": "C/C=C/C[C@@H](C)C(=O)[C@H]1C(=O)N[C@@H](C(C)C)C(=O)N(C)CC(=O)N(C)[C@@H](CC(C)C)C(=O)N[C@@H](C(C)C)C(=O)N(C)[C@@H](CC(C)C)C(=O)N[C@@H](C)C(=O)N[C@H](C)C(=O)N(C)[C@@H](CC(C)C)C(=O)N(C)[C@@H](CC(C)C)C(=O)N(C)[C@@H](C(C)C)C(=O)N1C", "note": "[valspodar]", "values": [{"measurement": "oral methadone bioavailability, change", "setting": "P-gp [5]", "value": "increased"}]}, {"smiles": "C[C@@H](c1ncncc1F)[C@](O)(Cn1cncn1)c1ccc(F)cc1F", "note": "[voriconazole]", "values": [{"measurement": "R-methadone AUC, increase", "setting": "[2]", "value": 47, "unit": "%"}, {"measurement": "S-methadone AUC, increase", "setting": "[2]", "value": 103, "unit": "%"}]}]}
